Patent US20040214850A1, “1-glyoxylamide indolizines for treating cancer” (Synta Pharmaceuticals Corp., priority 2001, published 2004)

Assays:
[1] = tested on: MDA435 (human breast cancer); test: In vitro anti-cancer activity, MTS growth inhibition assay, MDA-435; assay type: cell-based; settings: MDA-435 cells, 72 hours
Description: (§1) The in vitro activity of the compounds was determined in the following seven human cancer cell lines. MDA435 (human breast cancer), MIP101 (human colon cancer), HL-60 (human myeloid leukemia), U937 (human leukemia), p388 (murine leukemia), DU-145 (human prostate cancer), MES-SA (human uterine sarcoma) were obtained from ATCC (American Type of Culture Collection).
(§2) The cell lines were maintained in RPMI1640 (GIBCO) supplemented with 10% FCS, 100 units/ml penicillin, 100 ug/ml streptomycin, and 2 mM L-glutamine. The cells were split every third day and diluted to a concentration of 2×10^5 cells/ml one day before experiment. All experiments were performed on exponentially growing cell culture. Cell densities were 2.5×10^4 cells/ml in all experiment.
(§3) A stock solution of Compound (1) and a stock solution of Taxol (positive control) were prepared by dissolving the compound at a concentration of 1 mM in 100% DMSO. Final concentrations were obtained by diluting the stock solution directly into the tissue culture medium. Cells were incubated with varying concentrations of the compounds for 72 hours and the IC50 was determined by MTS (i.e. 3-(4,5,-dimethylthiazol-2-yl)-2,5-diphenyl tetrazolium bromide) assay. IC50 stands for the concentration of compound required to inhibit 50% tumor cell growth.

[2] = tested on: MIP101 (human colon cancer); test: In vitro anti-cancer activity, MTS growth inhibition assay, MIP-101; assay type: cell-based; settings: MIP-101 cells, 72 hours
Description: as §1, §2, §3

[3] = tested on: HL-60 (human myeloid leukemia); test: In vitro anti-cancer activity, MTS growth inhibition assay, HL-60; assay type: cell-based; settings: HL-60 cells, 72 hours
Description: as §1, §2, §3

[4] = tested on: U937 (human leukemia); test: In vitro anti-cancer activity, MTS growth inhibition assay, U-937; assay type: cell-based; settings: U-937 cells, 72 hours
Description: as §1, §2, §3

[5] = tested on: p388 (murine leukemia); test: In vitro anti-cancer activity, MTS growth inhibition assay, p388; assay type: cell-based; settings: Mus musculus, p388 cells, 72 hours
Description: as §1, §2, §3

[6] = tested on: DU-145 (human prostate cancer); test: In vitro anti-cancer activity, MTS growth inhibition assay, DU-145; assay type: cell-based; settings: DU-145 cells, 72 hours, MTS assay (Table 1), read-out: IC50
Description: as §1, §2, §3
(§4) The protocol described in Examples 9-10 was used to assay inhibition by Compounds (20) (21) (24) and (28) on the growth of cancer cell lines MES-SA (human uterine sarcoma cell line) and DU-145 (human prostate cancer).

[7] = tested on: MES-SA (human uterine sarcoma); test: In vitro anti-cancer activity, MTS growth inhibition assay, MES-SA; assay type: cell-based; settings: MES-SA cells, 72 hours, MTS assay (Table 1), read-out: IC50
Description: as §1, §2, §3, §4

[8] = tested on: HL-60/TX1000 (multi-drug resistant human myeloid leukemia cell line); test: In vitro activity against multi-drug resistant cell line HL-60/TX1000; assay type: cell-based; settings: HL60/TX1000, HL-60/TX1000 MDR cells (Table 2)
Description: as §2, §3
(§5) In vitro activity was determined in two MDR (Multi Drug Resistant) human cancer cell lines. HL-60/TX1000 was isolated in vitro by subculturing HL-60 in progressively higher concentration of Taxol. HL-60/TX1000 cells over-express mdr-1 mRNA and p-glycoprotein, as determined by western blot and immunofluorescence labeling with antiPGP antibodies. The cell is cross-resistant to Taxol, Vincristine, Adriamycin, Etoposide and Doxorubicin. MES-SA/Dx5 was established in the presence of increasing concentrations of Doxorubicin. […] MES-SA/Dx5 was purchased from ATCC.
(§6) The procedure for culturing the cells and assaying cancer cell growth inhibition were as described in Example 3.

[9] = tested on: MES-SA/DX5 (multi-drug resistant human uterine sarcoma cell line); test: In vitro activity against multi-drug resistant cell line MES-SA/DX5; assay type: cell-based; settings: MES-SA/Dx5, MES-SA/DX-5 MDR cells (Table 2)
Description: as §2, §3, §5, §6
The protocol described in Examples 9-10 was used to assay inhibition by Compounds (2)-(8) on the growth of the multidrug resistant cancer cell line MES-SA/DX5, which is a MDR uterine sarcoma cell line.

[10] = Body weight of nude mice bearing MDA435 tumor during treatment; assay type: in vivo, nude mice (CD-1 nu/nu); settings: 25 and 50 mg/kg orally
Description: The in vivo anti-cancer efficacy of Compound (1) was assessed in tumor bearing mice using a tumor growth inhibition assay. Human breast tumor (MDA-435) cells were implanted by injection of a tumor cell suspension subcutaneously in the flank of a nude mouse. Treatment of the tumor with an experimental compound began after the tumor had been established (volume was approximately 100 mm^3). The animal then began a multiple injection schedule where the compound was administered orally. Tumors were measured two times a week. During the course of this assay, animals were monitored daily for signs of toxicity including body weight loss.
A dosing solution for compound administration was prepared by dissolving 1 gram of Compound (1) in 10 ml of acetone (HPLC grade), and sonicated for 5 minutes using 550 Sonic Dismembrator. 1.2 equivalents of 1 N HCl aqueous solution were added to the acetone solution which was then sonicated for 5 minutes. All solvent was then evaporated from the solution by using Speed Vac Plus SC 250 DDA over night. The dried powder was used for preparing the dosing solution of Compound (1). 1% Methyl cellulose (MC) vehicle was prepared by dissolving 1.0 gram of Methyl cellulose, 400 cps, U.S.P. (Spectrum Laboratory Products, Cat. # ME136) in 100 mL of H2O. This mixture was then stirred for 12 hours at room temperature to produce a clear 1% MC solution. […]

[11] = tested on: seven cancer cell lines from different tissue types; test: Text summary: in vitro activity over the seven cancer cell lines of Table 1; assay type: cell-based; settings: range over the seven cell lines of Table 1; read-out: IC50 against seven cancer cell lines
Description: as §1, §2, §3

[12] = tested on: MDR cell lines (MES-SA/DX5, HL-60/TX1000); test: in vitro activity over the two MDR cell lines; assay type: cell-based, human; settings: MES-SA/DX5, HL-60/TX1000; in words
Description: as §2, §3, §5, §6

IC50 [1]: 0.05 µM | IC50 [2]: 0.02 µM | IC50 [3]: 0.01 µM | IC50 [4]: 0.05 µM | IC50 [5]: 0.01 µM | IC50 [6]: 0.05 µM | IC50 [7]: 0.01 µM | IC50 [8]: 0.02 µM | IC50 [9]: 0.05 µM | IC50 [11]: 0.01 to 0.05 µM
Structure (SMILES): Cc1cc(NC(=O)C(=O)c2cc(Cc3ccc(C#N)cc3)n3ccccc23)sn1 [Compound (1), 2-(3-(4-cyanobenzyl)-indolizin-1-yl)-N-(3-methyl-isothiazol-5-yl)-2-oxo-acetamide]
body weight change ([10]; FIG. 2): without showing significant body weight loss | body weight change ([10]; FIG. 2, listed as Compound 1): Little or no change in body weight | anti-cancer activity against MDR cancer cell lines [12]: high anti-cancer activity
